In patent US20100137136A1, “HERBICIDE/SAFENER COMBINATION” (BAYER CROPSCIENCE AG, priority 2008, published 2010):

How the values were obtained:
Format in all cases: in vivo
Corn (Aventura) [1] = assay: Post-emergence herbicidal effect and safener effect, corn; conditions: for % Reduction: reduction of effect by safener
Method: (§1) Seeds or rhizome pieces of mono- and dicotyledonous harmful plants and of crop plants are planted in peat pots in sandy loam, covered with earth and grown in a greenhouse under good growth conditions. Alternatively to this, harmful plants occurring in the paddy rice cultivation are cultivated in pots in which water stands up to 2 cm above the soil surface. 10 to 20 days after sowing, the test plants are treated in the one to three-leaf stage. The herbicide/safener active ingredient combinations according to the invention, formulated as water-soluble powders or suspensions, and, in parallel experiments, the correspondingly formulated individual active ingredients are sprayed onto the green plant parts in various dosages using an application rate of 300 l of water/ha (converted) and, after the test plants have remained in the greenhouse under optimum growth conditions for 2-3 weeks, the effect of the preparations is scored visually in comparison with untreated controls. In the case of rice or in the case of harmful plants which occur in the rice cultivation, the active ingredients are also placed directly into the irrigation water (application analogous to the so-called granules application) or sprayed onto plants and into the irrigation water.

Wheat (Triso) [2] = assay: Pre-emergence herbicidal effect and safener effect, wheat; conditions: for % Reduction: reduction of effect by safener
Description: (§2) Seeds or rhizome pieces of mono- and dicotyledonous weed plants and crop plants were planted in peat pots in sandy loam and covered with earth. The herbicide/safener active ingredient combinations according to the invention, formulated as water-soluble powders or suspensions, and, in parallel experiments, the correspondingly formulated individual active ingredients were then applied to the surface of the covering earth at an application rate of 600 to 800 l of water/ha (converted) in a variety of dosages.

Barley (Adonis) = assay: Post-emergence herbicidal effect and safener effect, barley; conditions: herbicide 20 g a.i./ha, no safener, scored visually vs untreated controls
Method: as §1

Wheat (Triso) [3] = assay: Post-emergence herbicidal effect and safener effect, wheat; conditions: for % effect (with safener) / % Reduction: herbicide I-2 20 g a.i./ha + safener 50 g a.i./ha; for % Reduction: reduction of effect by safener
Method: as §1

Rice (Ballila) = assay: Post-emergence herbicidal effect and safener effect, rice; conditions: for % effect (with safener) / % Reduction: herbicide I-2 80 g a.i./ha + safener 200 g a.i./ha; for % Reduction: reduction of effect by safener
Method: as §1

Corn (Aventura) [4] = assay: Pre-emergence herbicidal effect and safener effect, corn; conditions: for % effect (with safener) / % Reduction: herbicide I-2 80 g a.i./ha + safener 200 g a.i./ha; for % Reduction: reduction of effect by safener
Description: as §2

[5] = herbicide I-2 20 g a.i./ha + safener 50 g a.i./ha
[6] = herbicide I-2 20 g a.i./ha alone
[7] = herbicide I-2 80 g a.i./ha alone
[8] = herbicide I-2 80 g a.i./ha + safener 200 g a.i./ha

Structure (SMILES): CC1(C)OC(c2ccco2)CN1C(=O)C(Cl)Cl (racemic) [Compound S3-10, (RS)-3-dichloroacetyl-5-(2-furyl)-2,2-dimethyloxazolidine]
- % effect (with safener) (Corn (Aventura) [1]; [5]): 20%
- % Reduction (Corn (Aventura) [1]; [5]): 50%
- % effect (with safener) (Wheat (Triso) [2]; [5]): 10%
- % Reduction (Wheat (Triso) [2]; [5]): 67%

Structure (SMILES): COC(=O)c1nc(C2CC2)cc(N)c1Cl [Compound I-2, methyl 4-amino-3-chloro-6-cyclopropyl-2-pyridinecarboxylate]
- % effect (without safener) (Barley (Adonis)): 20%
- % effect (without safener) (Wheat (Triso) [3]; [6]): 20%
- % effect (without safener) (Rice (Ballila); [7]): 30%
- % effect (without safener) (Corn (Aventura) [1]; [6]): 40%
- % effect (without safener) (Corn (Aventura) [1]; [7]): 40%
- % effect (without safener) (Wheat (Triso) [2]; [6]): 30%
- % effect (without safener) (Wheat (Triso) [2]; [7]): 30%
- % effect (without safener) (Corn (Aventura) [4]; [7]): 35%

Structure (SMILES): CCCCCC(C)OC(=O)COc1ccc(Cl)c2cccnc12 (stereo not drawn) [Compound S2-1, 1-methylhexyl(5-chloro-8-quinolinoxy)acetate]
- % effect (with safener) (Rice (Ballila)): 10%
- % Reduction (Rice (Ballila)): 67%
- % effect (with safener) (Corn (Aventura) [1]; [5]): 20%
- % Reduction (Corn (Aventura) [1]; [5]): 50%
- % effect (with safener) (Wheat (Triso) [2]; [8]): 20%
- % Reduction (Wheat (Triso) [2]; [8]): 33%

Structure (SMILES): CC1COc2ccccc2N1C(=O)C(Cl)Cl (stereo not drawn) [Compound S3-4, 4-dichloroacetyl-3,4-dihydro-3-methyl-2H-1,4-benzoxazine]
- % effect (with safener) (Corn (Aventura) [1]; [8]): 10%
- % Reduction (Corn (Aventura) [1]; [8]): 75%

Structure (SMILES): FC(F)(F)C(=NOCC1OCCO1)c1ccc(Cl)cc1 [Compound S11-2, 1-(4-chlorophenyl)-2,2,2-trifluoro-1-ethanone O-(1,3-dioxolan-2-ylmethyl)oxim]
- % effect (with safener) (Wheat (Triso) [2]; [5]): 20%
- % Reduction (Wheat (Triso) [2]; [5]): 33%

Structure (SMILES): O=C(O)c1nc(C(Cl)(Cl)Cl)n(-c2ccc(Cl)cc2Cl)n1 [Fenchlorazole]
- % effect (with safener) (Wheat (Triso) [2]; [5]): 10%
- % Reduction (Wheat (Triso) [2]; [5]): 67%

Structure (SMILES): CCOC(=O)C1=NOC(c2ccccc2)(c2ccccc2)C1 [Isoxadifen-ethyl, ethyl 5,5-diphenyl-2-isoxazoline-carboxylate]
- % effect (with safener) (Wheat (Triso) [3]): 0%
- % Reduction (Wheat (Triso) [3]): 100%
- % effect (with safener) (Rice (Ballila)): 20%
- % Reduction (Rice (Ballila)): 33%
- % effect (with safener) (Corn (Aventura) [1]; [8]): 20%
- % Reduction (Corn (Aventura) [1]; [8]): 50%
- % effect (with safener) (Wheat (Triso) [2]; [5]): 10%
- % Reduction (Wheat (Triso) [2]; [5]): 67%
- % effect (with safener) (Corn (Aventura) [4]): 25%
- % Reduction (Corn (Aventura) [4]): 29%

Structure (SMILES): CCOC(=O)C1=NN(c2ccc(Cl)cc2Cl)C(C)(C(=O)OCC)C1 (stereo not drawn) [Mefenpyr-diethyl, ethyl 1-(2,4-dichlorophenyl)-5-(ethoxycarbonyl)-5-methyl-2-pyrazoline-3-carboxylate]
- % effect (with safener) (Wheat (Triso) [3]): 0%
- % Reduction (Wheat (Triso) [3]): 100%
- % effect (with safener) (Corn (Aventura) [1]; [5]): 20%
- % Reduction (Corn (Aventura) [1]; [5]): 50%
- % effect (with safener) (Wheat (Triso) [2]; [5]): 20%
- % Reduction (Wheat (Triso) [2]; [5]): 33%
- % effect (with safener) (Corn (Aventura) [4]): 20%
- % Reduction (Corn (Aventura) [4]): 43%
